Earlier results as cited in patent US20060106545A1, “Methods of clustering proteins” (Jubilant Biosys Ltd., priority 2004, published 2006).

What was measured:
[1] = molecular target: T1, SAPK3 (Stress-activated protein kinase 3) (Homo sapiens, UniProt P53778)
T1 sequence (P53778 1-367): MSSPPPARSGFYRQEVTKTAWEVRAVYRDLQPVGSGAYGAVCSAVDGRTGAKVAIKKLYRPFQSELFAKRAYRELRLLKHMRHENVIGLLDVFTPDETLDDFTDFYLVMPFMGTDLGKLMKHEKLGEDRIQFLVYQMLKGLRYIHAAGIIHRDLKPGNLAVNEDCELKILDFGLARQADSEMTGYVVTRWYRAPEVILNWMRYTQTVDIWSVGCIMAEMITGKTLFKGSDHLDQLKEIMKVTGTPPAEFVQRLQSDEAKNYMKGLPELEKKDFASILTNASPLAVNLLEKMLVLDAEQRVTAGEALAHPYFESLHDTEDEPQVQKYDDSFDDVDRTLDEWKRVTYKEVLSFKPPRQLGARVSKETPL

[2] = test system: SAPK2; details: kinase SAPK2
[3] = molecular target: PKB (Protein kinase B) (Homo sapiens, UniProt P31749)
Sequence of PKB (Protein kinase B) (P31749 whole entry): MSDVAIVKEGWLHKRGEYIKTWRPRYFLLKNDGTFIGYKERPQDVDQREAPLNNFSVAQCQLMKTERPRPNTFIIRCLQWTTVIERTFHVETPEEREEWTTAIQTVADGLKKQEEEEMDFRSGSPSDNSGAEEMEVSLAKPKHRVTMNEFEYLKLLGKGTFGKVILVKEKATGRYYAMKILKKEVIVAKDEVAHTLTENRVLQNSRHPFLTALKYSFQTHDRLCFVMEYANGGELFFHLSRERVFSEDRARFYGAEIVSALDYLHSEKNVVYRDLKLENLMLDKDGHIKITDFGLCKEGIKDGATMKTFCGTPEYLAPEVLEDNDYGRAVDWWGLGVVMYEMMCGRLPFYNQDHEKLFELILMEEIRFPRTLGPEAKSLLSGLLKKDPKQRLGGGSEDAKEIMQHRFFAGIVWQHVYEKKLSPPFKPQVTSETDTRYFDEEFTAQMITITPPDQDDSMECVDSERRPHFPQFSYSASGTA

[4] = test system: MKK (Mitogen activated protein kinase kinase)
[5] = molecular target: MAPK2 (Mitogen-activated protein kinase 2) (Homo sapiens, UniProt P28482)
Sequence of MAPK2 (Mitogen-activated protein kinase 2) (P28482 whole entry): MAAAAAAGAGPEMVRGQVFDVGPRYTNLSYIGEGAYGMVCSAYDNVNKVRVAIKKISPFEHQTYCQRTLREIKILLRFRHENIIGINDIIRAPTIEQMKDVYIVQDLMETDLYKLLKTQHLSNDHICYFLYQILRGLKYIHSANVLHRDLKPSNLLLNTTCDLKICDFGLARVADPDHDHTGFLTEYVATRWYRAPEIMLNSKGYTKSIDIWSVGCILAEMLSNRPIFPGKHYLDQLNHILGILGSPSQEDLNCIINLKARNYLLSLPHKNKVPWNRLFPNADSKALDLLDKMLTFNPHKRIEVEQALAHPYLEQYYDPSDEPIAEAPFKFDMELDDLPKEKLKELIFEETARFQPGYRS

[6] = molecular target: CK2 (Casein kinase 2) (Homo sapiens, UniProt P68400)
Sequence of CK2 (Casein kinase 2) (P68400 whole entry): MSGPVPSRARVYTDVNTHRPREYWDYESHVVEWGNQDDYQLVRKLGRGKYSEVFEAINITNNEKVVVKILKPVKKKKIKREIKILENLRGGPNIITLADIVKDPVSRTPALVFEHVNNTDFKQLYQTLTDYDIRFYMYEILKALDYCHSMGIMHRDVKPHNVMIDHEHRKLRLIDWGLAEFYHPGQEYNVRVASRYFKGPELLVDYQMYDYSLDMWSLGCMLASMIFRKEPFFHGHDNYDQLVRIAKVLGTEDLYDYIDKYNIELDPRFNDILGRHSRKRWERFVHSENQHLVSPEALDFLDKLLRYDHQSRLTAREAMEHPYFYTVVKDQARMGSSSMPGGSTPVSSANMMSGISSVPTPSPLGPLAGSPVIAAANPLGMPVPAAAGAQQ

Compound	percentage of expression, Bain et al., (2003) [1]	% of Expression Bain et al. [2]	% of Expression Bain et al., (2002) [3]	% of Expression Bain et al. [4]	% of Expression Bain et al., (2002) [5]	% of Expression Bain et al., (2002) [6]
CC(C)[C@H](CO)Nc1nc(Nc2cccc(Cl)c2)c2ncn(C(C)C)c2n1 [Purvalanol]	more than 80%	>80%	–	–	–	–
O=C1Cc2c([nH]c3ccc(Br)cc23)-c2ccccc2N1 [Kenpaullone]	–	–	40-60%	>80%	60-80%	>80%
